# Entries after “also recorded” stand apart in the source; their conditions may differ. Where two headings read alike, the source gives them in different places.
# Legend:
# SERT [1] = target: T1, SERT (Homo sapiens, UniProt P31645); design: host or cells: human platelets (endogenous SERT); conditions: read-out: uptake inhibition by DMT; human platelets expressing SERT; literature value; cited from earlier work
# SERT [2] = target: T1, SERT; test: Release (efflux) assay in HEK293-SERT cells loaded with [3H]5-HT; type: cell-based; design: expressed in transfected cells; conditions: Examples dissolved in HCl, DMT in DMSO, compared with pCA (full releaser)
# Procedure: (§1) Human embryonic kidney (HEK) 293 cells stably expressing human SERT were maintained in humidified atmosphere (37° C., 5% CO2) in Dulbecco's Modified Eagle Medium (DMEM), supplemented with 10% heat-inactivated fetal calf serum (FCS), streptomycin (100 μg×100 mL^−1) and penicillin (100 U×100 mL^−1). Geneticin (50 μg×mL^−1) was used as selection antibiotic.
# The day prior to the assay, stably expressing HEK293-SERT cells were seeded in a perfusion chamber of an IBIDI microfluidic chip (μ-Slide VI 0.5 Glass Bottom, ibidi GmbH). Chambers were previously coated with poly-D-lysine for 20 min at 37° C. and then cells were seeded at a density of approximately 1-10^6 cells×mL^−1.
# For the release experiment, cells were loaded with radioactive substrate […] [^3H]5-HT for 20 min at 37° C. and then perfused with different solutions at constant flow rate (0.6 μL min^−1). […] The cells were flushed using sodium dodecyl sulfate (SDS) to retrieve the residual radioactivity (6 min). […]
# Radioactivity was quantified with a beta-scintillation counter (PerkinElmer, Waltham, MA, USA). The released amount of tritiated substrate for each fraction was expressed as the amount of released tritium compared to the amount remaining in the cell at the end of the previous fraction. […]
# SERT [3] = target: T1, SERT; test: Uptake inhibition assay ([3H]5-HT) in HEK293-SERT cells; type: cell-based; design: expressed in transfected cells; conditions: for IC50: HEK293-SERT cells
# Procedure: as §1
# One day before the experiment, HEK293-SERT cells were seeded onto poly-D-lysine coated 96 well plates at a density of 30,000 cells per well in a final volume of 200 μL. For uptake experiments, the cell culture medium was replaced with 300 μL Krebs-HEPES buffer (KHB; 25 mM HEPES, 120 mM NaCl, 5 mM KCl, 1.2 mM CaCl2, 1.2 mM MgSO4, and 5 mM D-glucose, pH 7.3). Then, the buffer was replaced with various concentrations of test compounds for 5 minutes; subsequent to that, 0.1 μM [^3H]5-HT in KHB was added to yield a total volume of 50 μL in the well. For determination of non-specific uptake, paroxetine was used (3 μM).
# Uptake was terminated after 60 s by washing the cells with 200 μL ice-cold KHB. Subsequently, the cells were lysed with 200 μL Ultima Gold™ XR liquid scintillation cocktail, and the amount of tritium in the cells was measured with a Wallac 1450 MicroBeta® TriLux liquid scintillation counter. Monoamine uptake data were fitted by nonlinear regression, Vmax and Km values were calculated from Michaelis Menten's least-squares fit with GraphPad Prism (Prism 9.0.2, GraphPad Software, San Diego, CA, USA).
# We tested Example 1, Example 4, Example 13 in both uptake inhibition and release assays, and Example 15 in uptake inhibition assays. Drugs were tested either as the undecomposed prodrug or after treatment with 0.5% HCl at 37° C. for 24 hours in order to simulate digestion of the prodrug by gastric acid inside the body after peroral administration. DMT was tested dissolved only in DMSO.
# [4] = type: physicochemical; conditions: for stability of the prodrug (in words): 1% HCl, pH 7.4 and pH 8.0 compared; for release of DMT / conversion to DMT (in words): all tested pHs: 1% HCl, pH 7.4, pH 8.0; for degradation of the prodrug: essentially instantaneous, with liberation of DMT
# Procedure: Four compounds (i.e., methyl carbamate [compound 8, Example 8], boc carbamate [compound 11, […]], pinacol boronic ester [compound 1, Example 1] and TFA-amide [compound 3, Example 3]) were tested for their stability in 1% hydrochloric acid (HCl) as well as in phosphate buffers (0.1 M) at pH 7.4 and pH 8.0, respectively. These conditions were selected to assess the chemical stability of these compounds at a pH corresponding to different physiological conditions. Dilute hydrochloric acid (pH 1) was used to mimic the low pH of gastric acid within the stomach, while potassium phosphate buffers of pH 7.4 and pH 8.0 were used to mimic conditions in human blood and small intestine, respectively.
# 4 mg of each test compound was diluted in 4 mL of either a 1% HCl solution or the respective phosphate buffer (0.1 M), resulting in a solution of 1 mg/mL each. Regarding the acidic testing with hydrochloric acid, 2 mL of aqueous test compound solutions were then added to 2 mL of 2% (v/v) in distilled water, yielding a final HCl concentration of […] (pH 0.5). Test solutions were incubated at 37° C. with constant stirring for approximately 21 hours. The concentrations of the parent compound were analyzed at different timepoints using LC/MS. The concentrations of the parent prodrug and released drug were expressed relative to the starting concentration of the parent prodrug.
# [5] = after treatment with 0.5% HCl at 37° C. for 24 hours, read-out: Uptake inhibition, IC50 values, SERT
# [6] = undecomposed compound dissolved in DMSO, no HCl pre-treatment, read-out: Uptake inhibition, IC50 values, SERT
# T1 sequence (P31645 whole entry): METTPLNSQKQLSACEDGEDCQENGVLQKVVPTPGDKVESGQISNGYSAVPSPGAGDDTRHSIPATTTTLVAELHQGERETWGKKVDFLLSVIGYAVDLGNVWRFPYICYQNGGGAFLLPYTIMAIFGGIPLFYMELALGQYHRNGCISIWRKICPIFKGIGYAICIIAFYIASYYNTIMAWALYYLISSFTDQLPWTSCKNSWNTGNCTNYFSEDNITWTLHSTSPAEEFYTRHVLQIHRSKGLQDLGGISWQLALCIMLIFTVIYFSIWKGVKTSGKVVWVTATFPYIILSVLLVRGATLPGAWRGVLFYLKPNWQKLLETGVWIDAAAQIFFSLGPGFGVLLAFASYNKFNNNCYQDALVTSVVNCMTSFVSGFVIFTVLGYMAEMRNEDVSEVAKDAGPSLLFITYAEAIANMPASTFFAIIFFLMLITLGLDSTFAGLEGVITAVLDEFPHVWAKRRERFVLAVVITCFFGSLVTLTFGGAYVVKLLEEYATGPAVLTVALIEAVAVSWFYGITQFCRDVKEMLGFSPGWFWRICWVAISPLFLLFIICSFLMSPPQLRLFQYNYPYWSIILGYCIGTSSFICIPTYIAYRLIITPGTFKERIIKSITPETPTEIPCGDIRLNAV
SMILES,stability of the prodrug (in words) [4],release of DMT / conversion to DMT (in words) ([4]; 37° C.),IC50 (SERT [3]; [5]) [µM],IC50 (SERT [3]; [6]) [µM],other results
"CN(C)CCc1c[nH]c2ccccc12 [DMT, N,N-Dimethyltryptamine]",–,–,–,–,"IC50 (SERT [1]): ~10 µM; transporter-mediated efflux (release) via SERT (SERT [2]): almost full efficacious release; IC50 (SERT [3]; Uptake inhibition, IC50 values, SERT, undecomposed compound dissolved in DMSO, no HCl pre-treatment): 12.3 µM"
"CN(C)CCc1c[nH]c2cccc(B3OC(C)(C)C(C)(C)O3)c12 [Example 1, N,N-dimethyl-2-(4-(4,4,5,5-tetramethyl-1,3,2-dioxaborolan-2-yl)-1H-indol-3-yl)ethan-1-amine]",maximum stability under acidic conditions,releasing DMT rapidly within minutes,13.6,26.7,–
"CN(C)CCc1cn(C(=O)C(F)(F)F)c2ccccc12 [Example 3, 1-(3-(2-(dimethylamino)ethyl)-1H-indol-1-yl)-2,2,2-trifluoroethan-1-one]",maximum stability under acidic conditions,releasing DMT rapidly within minutes,–,–,"degradation of the prodrug ([4]; phosphate buffer (0.1 M) pH 7.4, 37° C.): 100%; degradation of the prodrug ([4]; phosphate buffer (0.1 M) pH 8.0, 37° C.): 100%"
"CN(C)CCc1cn(C(=O)C(C)(C)C)c2ccccc12 [Example 4, 1-(3-(2-(dimethylamino)ethyl)-1H-indol-1-yl)-2,2-dimethylpropan-1-one]",–,–,8.3,~2.1,transporter-mediated efflux (release) via SERT (SERT [2]): induces even less efflux; also recorded: yields a lower efflux compared to both DMT and Example 1
"COC(=O)n1cc(CCN(C)C)c2ccccc21 [Example 8, methyl 3-(2-(dimethylamino)ethyl)-1H-indole-1-carboxylate]",–,–,–,–,"release of DMT at pH 7.4 and pH 8.0 ([4]; phosphate buffers (0.1 M) pH 7.4 and pH 8.0, 37° C.): continuous release of DMT"
"CN(C)CCc1cn(C(=O)OC(C)(C)C)c2ccccc12 [Example 11, tert-butyl 3-(2-(dimethylamino)ethyl)-1H-indole-1-carboxylate]",significantly more stable under all tested conditions,Conversion to DMT proceeded efficiently throughout the entire experiment at all pHs,–,–,"liberation of DMT / conversion under acidic conditions ([4]; 1% HCl solution (pH 1.0), 37° C., approximately 21 hours): remarkably fast release time of two hours"
"CN(C)CCc1cn(S(=O)(=O)C2CC2)c2ccccc12 [Example 13, 2-(1-(cyclopropylsulfonyl)-1H-indol-3-yl)-N,N-dimethylethan-1-amine]",–,–,22.2,93.8,"interaction with the transporter without pre-treatment (in words) (SERT [3]; uptake inhibition, no HCl pre-treatment (DMSO)): interaction with the transporter was scarce"
